Reference: paper PMC7582571, “The First Berberine-Based Inhibitors of Tyrosyl-DNA Phosphodiesterase 1 (Tdp1), an Important DNA Repair Enzyme” (International Journal of Molecular Sciences, 2020)
Values joined by “and” are separate entries in the source; they are usually repeats but may differ in a detail not shown here. Equal entries are not always repeated. “Also recorded” adds a separate entry of the source. Where two headings read alike, the source gives them in different places.

Tests used:
[1] = target: Tdp1 (Homo sapiens, UniProt Q9NUW8); assay: Tdp1 activity, real-time fluorescence oligonucleotide biosensor (FAM/BHQ1) assay; assay type: biochemical
Excerpt: An oligonucleotide real-time biosensor was used based on the ability of Tdp1 to remove fluorophore quenchers from the 3′-end of DNA, as previously described. The hexadecameric oligonucleotide carried 5(6)-carboxyfluorescein (FAM) at the 5′-end and the fluorophore quencher BHQ1 (Black Hole Quencher-1) at the 3′-end. Tdp1 inhibitors prevent removal of fluorophore quenchers, thus reducing fluorescence intensity.
The methodology has been reported in our previous work and consists of fluorescence intensity measurement in a reaction of quencher removal from a fluorophore quencher-coupled DNA oligonucleotide catalyzed by Tdp1. The reaction was carried out at different concentrations of inhibitors (the control samples contained 1% of DMSO, Sigma, St. Louis, MO, USA). The reaction mixtures contained Tdp1 buffer (50 mM Tris-HCl pH 8.0, 50 mM NaCl, and 7 mM β-mercaptoethanol), 50 nM biosensor, and an inhibitor being tested. Purified Tdp1 (1.5 nM) triggered the reaction. The biosensor (5′-[FAM] AAC GTC AGGGTC TTC C [BHQ]-3′) was synthesized in the Laboratory of Biomedical Chemistry at the Institute of Chemical Biology and Fundamental Medicine (Novosibirsk, Russia).
The reactions were incubated on a POLARstar OPTIMA fluorimeter (BMG LABTECH, GmbH, Ortenberg, Germany) to measure fluorescence every 55 s (ex. 485/em. 520 nm) during the linear phase (here, data from minute 0 to minute 8). The values of IC50 were determined using a six-point concentration response curve in minimum three independent experiments and were calculated using MARS Data Analysis 2.0 (BMG LABTECH, GmbH, Ortenberg, Germany).

[2] = test system: HeLa cells; assay: cells; conditions: for effect of topotecan on the cytotoxicity of the Tdp1 inhibitor (in words): Mann–Whitney U-test; for CC50: Homo sapiens, HeLa
Protocol: For comparison, the concentration of the inhibitors was increased to 20 μM.
Cytotoxicity of the compounds to HeLa (human cervical cancer) cell line was examined using the EZ4U Cell Proliferation and Cytotoxicity Assay (Biomedica, Vienna, Austria), according to the manufacturer’s protocols. The cells were grown in Iscove’s modified Dulbecco’s medium (IMDM) with 40 μg/mL gentamicin, 50 IU/mL penicillin, 50 μg/mL streptomycin (MP Biomedicals, Santa Ana, CA, USA), and 10% of fetal bovine serum (Biolot, St. Petersburg, Russia) in a 5% CO2 atmosphere. After formation of a 30–50%-monolayer, the tested compounds were added to the medium. The volume of the added reagents was 1/100 of the total volume of the culture medium, and the amount of DMSO (Sigma, St. Louis, MO, USA) was 1% of the final volume. Control cells were grown in the presence of 1% DMSO. The cell culture was monitored for 3 days. To assess the influence of the inhibitors on the cytotoxic effect of topotecan (ACTAVIS GROUP PTC ehf., Bucharest, Romania), 50% cytotoxic concentrations of topotecan and of each inhibitor were determined to attain a defined single-agent effect. Then, minimum two independent tests were performed with each inhibitor in combination with topotecan. When using a combination of drugs, Tdp1 inhibitors were first added, then topotecan was added immediately (within 10–15 min).

[3] = Intrinsic cytotoxicity, EZ4U cell proliferation and cytotoxicity assay; assay type: cell-based, human; conditions: human, HeLa cells, compound alone, 3 days, read-out: CC50 (half maximal cytotoxic concentration)
Excerpt: (§1) Top1 poisons are used as anticancer drugs for the treatment for various oncological diseases. Since Tdp1 is involved in the removal of DNA damage caused by Top1 poisons, the activity of Tdp1 can lead to the development of drug resistance. Thus, it is believed that Tdp1 inhibition can enhance the efficacy of Top1 poisons. Tdp1 inhibitors should have the lowest possible intrinsic toxicity to minimize potential side effects. Therefore, we studied the intrinsic cytotoxicity of the compounds against HeLa cells (cervical carcinoma). EZ4U cell proliferation and cytotoxicity assay results are shown in Figure 4 for the ligands with Tdp1 inhibitory activity.
(§2) The cell culture was monitored for 3 days.

[4] = test system: HeLa cells; assay: as above; assay type: cell-based, human; conditions: for CC50: compound alone, 3 days, read-out: CC50 (half maximal cytotoxic concentration); for Intrinsic toxicity to HeLa cells (in words): without topotecan
Excerpt: as §1, §2

[5] = purified Tdp1 1.5 nM, 50 nM biosensor, read-out: IC50 (Tdp1 inhibiting activity)
[6] = Tdp1, values of supplementary Table S1 (less rounded), read-out: IC50 (µM), Table S1

Tdp1, sequence (Q9NUW8 whole entry): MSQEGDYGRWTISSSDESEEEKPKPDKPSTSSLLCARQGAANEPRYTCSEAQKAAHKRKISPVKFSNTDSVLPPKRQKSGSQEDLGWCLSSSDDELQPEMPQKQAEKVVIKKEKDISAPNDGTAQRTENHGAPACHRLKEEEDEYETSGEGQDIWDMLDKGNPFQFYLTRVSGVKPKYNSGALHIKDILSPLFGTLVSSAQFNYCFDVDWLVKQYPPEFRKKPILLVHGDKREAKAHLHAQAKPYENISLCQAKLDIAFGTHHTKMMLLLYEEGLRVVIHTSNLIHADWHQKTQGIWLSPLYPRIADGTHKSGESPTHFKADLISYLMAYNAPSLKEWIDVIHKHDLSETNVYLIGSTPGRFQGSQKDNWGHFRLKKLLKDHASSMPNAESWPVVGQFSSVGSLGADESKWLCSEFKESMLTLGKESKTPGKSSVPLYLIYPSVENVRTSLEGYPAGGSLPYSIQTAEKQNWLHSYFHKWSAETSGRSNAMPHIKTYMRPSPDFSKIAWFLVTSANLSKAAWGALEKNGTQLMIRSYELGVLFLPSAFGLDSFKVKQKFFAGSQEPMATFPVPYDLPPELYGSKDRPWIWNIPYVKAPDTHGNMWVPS

Structure (SMILES) | IC50 [1, 5] | effect of topotecan on the cytotoxicity of the Tdp1 inhibitor (in words) ([2]; HeLa cells, 2 μM topotecan) | CC50 at 3 days [3] | IC50 [1, 6] | further results
COc1ccc2cc3[n+](cc2c1OS(C)(=O)=O)CCc1cc2c(cc1-3)OCO2 [10a, 10-Methoxy-9-methanesulfonyloxy-2,3-methylenedioxyprotoberberine chloride] | > 15 µM |  |  |  | 
CCS(=O)(=O)Oc1c(OC)ccc2cc3[n+](cc12)CCc1cc2c(cc1-3)OCO2 [10b, 9-Ethanesulfonyloxy-10-methoxy-2,3-methylenedioxyprotoberberine chloride] | > 15 µM |  |  |  | 
CCCS(=O)(=O)Oc1c(OC)ccc2cc3[n+](cc12)CCc1cc2c(cc1-3)OCO2 [10c, 10-Methoxy-2,3-methylenedioxy-9-((propane-1-sulfonyl)oxy)protoberberine chloride] | > 15 µM |  |  |  | 
CCCCS(=O)(=O)Oc1c(OC)ccc2cc3[n+](cc12)CCc1cc2c(cc1-3)OCO2 [10d, 9-(Butane-1-sulfonyl)oxy-10-methoxy-2,3-methylenedioxy protoberberine chloride] | > 15 µM |  |  |  | 
COc1ccc2c(c1OS(C)(=O)=O)CN1CCc3cc4c(cc3C1C2)OCO4 (stereo not shown) [11a] | > 15 µM |  |  |  | 
CCS(=O)(=O)Oc1c(OC)ccc2c1CN1CCc3cc4c(cc3C1C2)OCO4 (stereo not shown) [11b] | > 15 µM |  |  |  | 
CCCS(=O)(=O)Oc1c(OC)ccc2c1CN1CCc3cc4c(cc3C1C2)OCO4 (stereo not shown) [11c] | > 15 µM |  |  |  | 
CCCCS(=O)(=O)Oc1c(OC)ccc2c1CN1CCc3cc4c(cc3C1C2)OCO4 (stereo not shown) [11d] | > 15 µM |  |  |  | 
COc1ccc2c(c1OS(=O)(=O)c1ccc(C)cc1)CN1CCc3cc4c(cc3C1C2)OCO4 (stereo not shown) [11e] | > 15 µM |  |  |  | Tdp1 inhibitory activity (in words) [1]: inactive
COc1ccc2c(c1OS(=O)(=O)c1c(F)c(F)c(F)c(F)c1F)CN1CCc3cc4c(cc3C1C2)OCO4 (stereo not shown) [11f] | ~1 µM and 1 µM | significantly increased | 10 µM | 0.98 ± 0.2 µM | decrease of CC50 in the presence of topotecan (fold) ([2]; HeLa cells, 2 μM topotecan): three fold; cell death ([4]; 5 μM): 20%; cells that die ([4]; 20 μM): 90%; CC50 [4]: 11 ± 2 µM
COc1ccc2c(c1OS(=O)(=O)c1c(F)c(F)cc(F)c1F)CN1CCc3cc4c(cc3C1C2)OCO4 (stereo not shown) [11g] | 1.05 ± 0.05 µM | significantly increased | > 100 µM | 1.05 ± 0.05 µM | sensitizing effect on the cytotoxicity of topotecan (in words) ([2]; HeLa cells): doubled; also recorded: significant effect; also recorded: pronounced sensitizing effect; also recorded: sensitized the cancer cells to topotecan; decrease in cell survival in the presence of topotecan ([2]; HeLa cells, 2 μM topotecan, at all inhibitor concentrations): ~ 30%; living cells ([4]; 100 μM maximum concentration): 100%; Intrinsic toxicity to HeLa cells (in words) [4]: low toxicity; also recorded: nontoxic
COc1ccc2c(c1OS(=O)(=O)c1c(F)c(F)c(C(F)(F)F)c(F)c1F)CN1CCc3cc4c(cc3C1C2)OCO4 (stereo not shown) [11h] | 0.9 ± 0.2 µM | negligible or unreliable | 2.6 ± 0.1 µM | 0.93 ± 0.22 µM | 
COc1cc(Br)c2c(c1OS(C)(=O)=O)CN1CCc3cc4c(cc3C1C2)OCO4 (stereo not shown) [12a] | > 15 µM |  |  |  | 
CCS(=O)(=O)Oc1c(OC)cc(Br)c2c1CN1CCc3cc4c(cc3C1C2)OCO4 (stereo not shown) [12b] | > 15 µM |  |  |  | 
CCCS(=O)(=O)Oc1c(OC)cc(Br)c2c1CN1CCc3cc4c(cc3C1C2)OCO4 (stereo not shown) [12c] | 2.9 ± 1.3 µM | negligible or unreliable | > 100 µM | 2.86 ± 1.25 µM | Intrinsic toxicity to HeLa cells (in words) [4]: non-toxic up to 100 μM
CCCCS(=O)(=O)Oc1c(OC)cc(Br)c2c1CN1CCc3cc4c(cc3C1C2)OCO4 (stereo not shown) [12d] | 4 ± 1 µM | negligible or unreliable | > 100 µM | 4.06 ± 1.05 µM | Intrinsic toxicity to HeLa cells (in words) [4]: non-toxic up to 100 μM
COc1cc(Br)c2c(c1OS(=O)(=O)c1ccc(C)cc1)CN1CCc3cc4c(cc3C1C2)OCO4 (stereo not shown) [12e] | > 15 µM |  |  |  | Tdp1 inhibitory activity (in words) [1]: inactive
COc1cc(Br)c2c(c1OS(=O)(=O)c1c(F)c(F)c(F)c(F)c1F)CN1CCc3cc4c(cc3C1C2)OCO4 (stereo not shown) [12f] | 0.53 ± 0.01 µM | negligible or unreliable | 10 µM |  | CC50 [4]: 9.9 ± 4.5 µM
COc1cc(Br)c2c(c1OS(=O)(=O)c1c(F)c(F)cc(F)c1F)CN1CCc3cc4c(cc3C1C2)OCO4 (stereo not shown) [12g] | 1.3 ± 0.3 µM | significantly increased | 95 ± 5 µM | 1.33 ± 0.28 µM | sensitizing effect on the cytotoxicity of topotecan (in words) ([2]; HeLa cells): doubled; also recorded: significant effect; also recorded: pronounced sensitizing effect; also recorded: sensitized the cancer cells to topotecan
COc1cc(Br)c2c(c1OS(=O)(=O)c1c(F)c(F)c(C(F)(F)F)c(F)c1F)CN1CCc3cc4c(cc3C1C2)OCO4 (stereo not shown) [12h] | 1.4 ± 0.3 µM | negligible or unreliable | 2.2 ± 1.5 µM | 1.38 ± 0.3 µM | 
COc1ccc2cc3[n+](cc2c1OC)CCc1cc2c(cc1-3)OCO2 [compound 9, berberine] |  |  |  | > 15 µM | 
CC[C@@]1(O)C(=O)OCc2c1cc1n(c2=O)Cc2cc3c(CN(C)C)c(O)ccc3nc2-1 [topotecan, reference compound] |  |  | 2 µM |  | CC50 ([2]; read-out: CC50, μM–5 μM Tdp1 inhibitor (cytotoxic potential of topotecan)): 6.8 ± 1.1 µM; CC50 ([2]; read-out: CC50, μM–20 μM Tdp1 inhibitor (cytotoxic potential of topotecan)): 6.8 ± 1.1 µM
